In ChEMBL document CHEMBL1148361, “Total synthesis and anti-tubulin activity of epi-c3 analogues of cryptophycin-24” (J Med Chem, 2004):

Legend:
[1] = test system: MCF7; assay: In vitro inhibitory activity of compound against induced cytotoxicity in MCF-7 cell line; type: functional, cell-based, Homo sapiens
[2] = In vitro inhibitory activity of compound against microtubule polymerization in a tubulin assembly assay; type: functional
[3] = Resistance factor was expressed as the IC50 of resistance cell line / IC50 of sensitive cell line; type: functional
[4] = test system: NCI/ADR-RES; assay: In vitro inhibitory activity of compound against induced cytotoxicity in multidrug-resistant MCF-7/ADR breast cancer cell line; type: functional, cell-based, Homo sapiens

## COc1ccc(C[C@H]2NC(=O)/C=C/CC(C(C)C3OC3c3ccccc3)OC(=O)[C@@H](CC(C)C)OC(=O)CCNC2=O)cc1Cl (single isomer, unassigned)
[1]; Homo sapiens, MCF7
  IC50: 0.28 nM
[2]
  IC50: 10.6 µM
[3]
  Resistance factor: 3.3
[4]; Homo sapiens, NCI/ADR-RES
  IC50: 0.92 nM

## COc1ccc(C[C@H]2NC(=O)/C=C/C[C@@H]([C@H](C)/C=C/c3ccccc3)OC(=O)[C@@H](CC(C)C)OC(=O)CCNC2=O)cc1Cl
[1]; Homo sapiens, MCF7
  IC50: > 25 nM
[2]
  IC50: > 100 µM
[4]; Homo sapiens, NCI/ADR-RES
  IC50: > 25 nM

## COc1ccc(C[C@H]2NC(=O)/C=C/C[C@@H]([C@H](C)/C=C/c3ccccc3)OC(=O)[C@@H](CC(C)C)OC(=O)CCNC2=O)cc1
[1]; Homo sapiens, MCF7
  IC50: > 25 nM
[2]
  IC50: > 100 µM
[4]; Homo sapiens, NCI/ADR-RES
  IC50: > 25 nM

## COc1ccc(C[C@H]2NC(=O)/C=C/C[C@@H]([C@H](C)[C@H]3O[C@@H]3c3ccccc3)OC(=O)[C@H](CC(C)C)OC(=O)[C@H](C)CNC2=O)cc1Cl [CRYPTOPHYCIN A]
[1]; Homo sapiens, MCF7
  IC50: 0.009 nM
[2]
  IC50: 3.4 µM
[3]
  Resistance factor: 2
[4]; Homo sapiens, NCI/ADR-RES
  IC50: 0.018 nM

## COc1ccc(C[C@H]2NC(=O)/C=C/C[C@@H](C(C)[C@H]3O[C@@H]3c3ccccc3)OC(=O)[C@H](CC(C)C)OC(=O)CCNC2=O)cc1 (single isomer, unassigned) [ARENASTATIN A]
[1]; Homo sapiens, MCF7
  IC50: 0.13 nM
[2]
  IC50: 15.8 µM
[3]
  Resistance factor: 1.9
[4]; nci/adr-res
  IC50: 250 nM

## COc1ccc(C[C@H]2NC(=O)/C=C/C[C@@H](C(C)[C@H]3O[C@@H]3c3ccccc3)OC(=O)C(CC(C)C)OC(=O)CCNC2=O)cc1 (single isomer, unassigned) [ARENASTATIN A]
[1]; mcf7
  IC50: 88 nM
[2]
  IC50: 13.7 µM
[3]
  Resistance factor: 27.3
[4]; nci/adr-res
  IC50: 2400 nM
